Tests used:
Experiment in all cases: Stability of Fe-S cluster binding of purified NEET protein (absorbance 458 nm)
Format in all cases: biochemical
[1] = biological target: T1, CISD1 Gene Product (mitoNEET) (Homo sapiens, UniProt Q9NZ45)
T1 sequence (Q9NZ45 33-108 limits assumed): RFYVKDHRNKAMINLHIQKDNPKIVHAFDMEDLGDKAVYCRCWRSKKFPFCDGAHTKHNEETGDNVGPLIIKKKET
Procedure: (§1) The modulator effect on the NEET proteins encoded by human CISD1, CISD2, and CISD3 genes by the compounds of the invention has been tested and is reported below. Particularly, the biochemical function of the NEET proteins is measured by the stability of Fe—S cluster binding of the purified NEET proteins.
(§2) The Fe—S cluster binding capacity of NEET proteins is known to be coordinated by four amino-acids in a stretch of 16 (three Cysteine and one Histidine). As the lability of the Fe—S cluster of NEET proteins is sensitive to the environment, cluster stability measurements are one of the measures of interactions of NEET proteins with small molecules and compounds. NEET protein/2Fe-2S cluster stability can be assessed by monitoring the decay in absorbance of its characteristic 458-nm peak (characteristic of the oxidized 2Fe-2S cluster) over time. Each NEET protein (mitoNEET, NAF-1 and Miner 2) was tested for its Fe—S binding in the absence or presence of a compound according to the invention (see table 3 below). The rate of cluster release (time in minutes to achieve 50% loss of bound Fe—S cluster) was compared for each NEET protein in the presence of one of the compounds of the invention (in a 1:3 protein:compound molar ratio) relative to each protein alone.
(§3) At pH 6, all the three NEET proteins (mitoNEET, NAF-1 and Miner 2) have a characteristic rate of loss of the bound Fe—S cluster that can be measured by the decrease of absorbance at wavelength 458 nm over time, using a spectrophotometer. Thus, Bis-Tris buffer (100 mM Bis-Tris pH6, 100 mM Nacl) was used at pH 6 to dilute either DMSO (Blank sample: Bis-Tris Buffer pH 6, 66 μM DMSO), DMSO and one of the three NEET proteins (Control sample: Bis-Tris Buffer pH 6, 66 μM DMSO, 20 μM purified NEET protein) or DMSO, one of the three NEET proteins and a compound of the invention (Test sample: Bis-Tris Buffer pH 6, 66 μM DMSO, 20 μM purified NEET protein, 60 μM compound of the invention).
(§4) A reaction mix containing DMSO diluted in the Bis-Tris Buffer with or without a compound of the invention was prepared. The purified NEET protein was the last component added to the reaction mix which was then aliquoted into 4 replicates in 96 wells plates. The absorbance at wavelength 458 nm was taken at 5 minutes intervals at 37° C. with a spectrofluorimeter. The assay run time for CISD2 gene product (NAF-1) was 500 minutes and 180 minutes for both the CISD 1 gene product (mitoNEET) and the CISD3 gene product (Miner 2).
(§5) In addition to time monitoring, residual bound Fe—S cluster to NEET protein was measured at the final point of the spectrometry assay for each Test sample and compared to the Control sample data (in parenthesis table 3). This residual binding is measured by the differential percentage between the absorbance 458 nm at time zero and the absorbance 458 nm at the end of the experiment (i.e. respectively 500 or 180 minutes as described hereabove), showing the percentage of NEET protein still able to bind Fe—S cluster.
(§6) Analysis of the absorbance enables the time for which 50% loss of bound Fe—S cluster is reached (i.e. a 50% absorbance decrease at 458 nm) for each Test sample and each Control sample (in parenthesis table 3) to be determined. The data are then compared to determine whether the compound of the invention stabilizes or destabilizes the NEET protein/Fe—S cluster binding.
(§7) Stabilisers of Fe—S cluster binding by the NEET proteins slow the release of bound Fe—S (i.e. increase the time needed to reach 50% Fe—S cluster bound loss by more than 25% for the Test sample compared to the Control sample). As illustrated by table 3, at the concentrations tested, stabilisers of CISD1 Gene Product (mitoNEET) are the compounds #9, #18, #26, #2, #1, and #42. Stabilisers of CISD2 Gene Product (NAF-1) are the compounds #2, #1, and #40. Stabilisers of CISD3 Gene Product (Miner2) are the compounds #9, #18, #26, #2, #1, and #42.

[2] = biological target: T2, CISD2 Gene Product (NAF-1) (Homo sapiens, UniProt Q8N5K1)
T2 sequence (Q8N5K1 57-135 limits assumed): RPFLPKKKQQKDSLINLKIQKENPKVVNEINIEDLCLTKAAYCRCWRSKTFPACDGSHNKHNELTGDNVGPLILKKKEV
Procedure: as §1, §2, §3, §4, §5, §6, §7

[3] = biological target: T3, CISD3 Gene Product (Miner2) (Homo sapiens, UniProt P0C7P0)
T3 sequence (P0C7P0 15-127): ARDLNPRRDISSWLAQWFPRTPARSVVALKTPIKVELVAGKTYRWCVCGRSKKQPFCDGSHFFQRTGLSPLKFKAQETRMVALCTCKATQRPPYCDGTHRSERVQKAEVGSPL
Procedure: as §1, §2, §3, §4, §5, §6, §7

SMILES: O=C(Nc1scc(-c2ccc(Cl)c(F)c2)c1C(=O)O)c1ccccc1 [Compound #2, 2-Benzamido-4-(4-chloro-3-fluoro-phenyl)thiophene-3-carboxylic acid]
- Residual cluster bound at end of experiment (Percentage Absorbance 458 nm at time zero) ([1]; at 180 minutes, 60 μM compound, vehicle control 16%): 36% (16%)
- Stabiliser of Fe—S cluster binding (time to 50% loss increased by more than 25% vs control) ([1]; at the concentrations tested): stabilisers
- Time (in minutes) to achieve 50% loss of bound cluster (Absorbance 458 nm) ([1]; pH 6, 37° C., 20 μM protein, 60 μM compound, run time 180 minutes, vehicle control 80): during 180 minutes
- Residual cluster bound at end of experiment (Percentage Absorbance 458 nm at time zero) ([2]; at 500 minutes, 60 μM compound, vehicle control 3%): 18% (3%)
- Stabiliser of Fe—S cluster binding (time to 50% loss increased by more than 25% vs control) ([2]; at the concentrations tested): Stabilisers
- Time (in minutes) to achieve 50% loss of bound cluster (Absorbance 458 nm) ([2]; pH 6, 37° C., 20 μM protein, 60 μM compound, run time 500 minutes, vehicle control 310): during 500 minutes
- Residual cluster bound at end of experiment (Percentage Absorbance 458 nm at time zero) ([3]; CISD3 gene product, at 180 minutes, 60 μM compound, vehicle control (DMSO) 11%): 52% (11%)
- Stabiliser of Fe—S cluster binding (time to 50% loss increased by more than 25% vs control) ([3]; Miner2, at the concentrations tested): Stabilisers
- Time (in minutes) to achieve 50% loss of bound cluster (Absorbance 458 nm) ([3]; Miner2, pH 6, 37° C., 20 μM protein, 60 μM compound, run time 180 minutes, vehicle control 60): during 180 minutes

Reference: patent US11840527B2, “Non-fused thiophene derivatives and their uses” (ENYO PHARMA, priority 2018, dated 2023)
